Results as given in paper PMC4809600, “The Influence of Chronic Wound Extracts on Inflammatory Cytokine and Histatin Stability” (PLoS ONE, 2016).
Where no end group is shown, it is not given here.

What was measured:
[1] = Stability in CWE with protease inhibitor cocktail (PIC), capillary zone electrophoresis; format: in vitro ADME, human; settings: 37°C, CZE, 0 h = 100%; for Percentage intact, CWE + PIC 2h / Percentage intact, CWE + PIC 4h / Percentage intact, CWE + PIC 8h / Percentage intact, CWE + PIC 16h / Percentage intact, CWE + PIC 24h / Percentage intact, CWE + PIC 48h / Percentage intact, CWE + PIC 72h / Percentage intact, CWE + PIC 96h: 1 mg/ml in PBS mixed 1:1 with CWE (1 mg/ml protein, pool of 5 donors) in PBS containing PIC (final 1:140 v/v), ratio to imidazole
Source text: (§1) Debridement tissue was obtained from chronic ulcers of 15 patients with therapy resistant (arterio-venous) leg ulcers, according to procedures described earlier. In brief, moist, easily removable debridement material, essentially blood free, was collected from the ulcer surface and divided equally into two different solutions: (i) PBS (B. Braun, Melsungen, Germany), (ii) PBS with protease inhibitor cocktail (PIC) (1:100; v/v) (Sigma-Aldrich, Steinheim, Germany). The mixtures were gently shaken for 1 h at 4°C to elute proteins and centrifuged; the supernatants were stored at -80°C. Total protein content of the supernatant was measured using the BioRad Protein Assay (BioRad Laboratories, Hercules, California, USA) essentially as described by the supplier. Samples were diluted to 1 mg/ml protein and extracts of five different donors were pooled; three different pools of five donors were used in all experiments. The samples are referred to as chronic wound extracts (CWE).
(§2) To determine the stability of the different peptides in CWE, histatins and cytokines were dissolved in PBS at 1 mg/ml. Histatins and cytokines were incubated in a 1:1 ratio with (i) PBS, (ii) CWE in PBS, or (iii) CWE in PBS containing PIC, in a total volume of 25 μl. Imidazole (Sigma-Aldrich) was added as an internal standard, with a final concentration of 100 μg/ml. The mixtures were incubated at 37°C, and samples were taken at 0, 24, 48, 72 and 96 h. For histatins containing mixtures, additional samples were taken after 2, 4, 8 and 16 h of incubation.
(§3) The samples were analyzed with a BioFocus 2000 capillary zone electrophoresis system (Bio-Rad Laboratories, Hercules, CA, USA) equipped with an uncoated fused-silica capillary of internal diameter 50 μm and a length of 24 cm. Samples were loaded by pressure injection (5 psi/sec). Separation was performed at 10 kV (cathode at the detector side) at 20°C using 0.1 M phosphate buffer (pH 2.5) as electrolyte and monitored continuously at 200 nm. Peaks were quantified with the BioFocus Integrator software. In order to quantify the percentage of intact peptides remaining after incubation with CWE, the ratios of histatins, rhIL-6 or rhCXCL8 to internal standard was set at 100% at 0h, and the ratios at the other incubation time points were related to this.

[2] = Stability in chronic wound extracts (CWE), capillary zone electrophoresis; format: in vitro ADME, human; settings: 37°C, CZE; for Percentage intact, CWE 2h / Percentage intact, CWE 4h / Percentage intact, CWE 8h / Percentage intact, CWE 16h / Percentage intact, CWE 24h / Percentage intact, CWE 48h / Percentage intact, CWE 72h / Percentage intact, CWE 96h: 1 mg/ml in PBS mixed 1:1 with CWE (1 mg/ml protein, pool of 5 donors) in PBS, UV 200 nm, ratio to imidazole
Source text: as §1, §2, §3

Percentage intact, CWE + PIC 2h ([1]; experiment 1 of 3): 93.4426%
Percentage intact, CWE + PIC 2h ([1]; experiment 2 of 3): 92.5142%
Percentage intact, CWE + PIC 2h ([1]; experiment 3 of 3): 89.0301%
Percentage intact, CWE + PIC 4h ([1]; experiment 1 of 3): 91.5351%
Percentage intact, CWE + PIC 4h ([1]; experiment 2 of 3): 92.7977%
Percentage intact, CWE + PIC 4h ([1]; experiment 3 of 3): 86.7184%
Percentage intact, CWE + PIC 8h ([1]; experiment 1 of 3): 85.6684%
Percentage intact, CWE + PIC 8h ([1]; experiment 2 of 3): 89.4382%
Percentage intact, CWE + PIC 8h ([1]; experiment 3 of 3): 85.0239%
Percentage intact, CWE + PIC 16h ([1]; experiment 1 of 3): 76.054%
Percentage intact, CWE + PIC 16h ([1]; experiment 2 of 3): 80.3459%
Percentage intact, CWE + PIC 16h ([1]; experiment 3 of 3): 78.2959%
Percentage intact, CWE + PIC 24h ([1]; 24 h, experiment 1 of 3): 76.7074%
Percentage intact, CWE + PIC 24h ([1]; 24 h, experiment 2 of 3): 74.947%
Percentage intact, CWE + PIC 24h ([1]; 24 h, experiment 3 of 3): 84.5492%
Percentage intact, CWE + PIC 48h ([1]; experiment 1 of 3): 70.9832%
Percentage intact, CWE + PIC 48h ([1]; experiment 2 of 3): 66.2527%
Percentage intact, CWE + PIC 48h ([1]; experiment 3 of 3): 75.4922%
Percentage intact, CWE + PIC 72h ([1]; experiment 1 of 3): 69.8915%
Percentage intact, CWE + PIC 72h ([1]; experiment 2 of 3): 66.4949%
Percentage intact, CWE + PIC 72h ([1]; experiment 3 of 3): 68.9587%
Percentage intact, CWE + PIC 96h ([1]; experiment 1 of 3): 63.8972%
Percentage intact, CWE + PIC 96h ([1]; experiment 2 of 3): 62.3087%
Percentage intact, CWE + PIC 96h ([1]; experiment 3 of 3): 62.2105%
remaining at 24 h, 0.5 mg/ml ([1]; human, with protease inhibitor cocktail (PIC), CWE with protease inhibitor cocktail (final 1:140 v/v), 24 h, mean of 3 independent experiments, read-out: Remaining fraction of intact peptide after 24 h in CWE + PIC): 78%
Percentage intact, CWE 2h ([2]; 0 h = 100%, experiment 1 of 3): 96.21%
Percentage intact, CWE 2h ([2]; 0 h = 100%, experiment 2 of 3): 97.4179%
Percentage intact, CWE 2h ([2]; 0 h = 100%, experiment 3 of 3): 80.1639%
Percentage intact, CWE 4h ([2]; 0 h = 100%, experiment 1 of 3): 78.5338%
Percentage intact, CWE 4h ([2]; 0 h = 100%, experiment 2 of 3): 80.0345%
Percentage intact, CWE 4h ([2]; 0 h = 100%, experiment 3 of 3): 54.5442%
Percentage intact, CWE 8h ([2]; 8 h, 0 h = 100%, experiment 1 of 3): 57.5027%
Percentage intact, CWE 8h ([2]; 8 h, 0 h = 100%, experiment 2 of 3): 66.6666%
Percentage intact, CWE 8h ([2]; 8 h, 0 h = 100%, experiment 3 of 3): 34.5662%
Percentage intact, CWE 16h ([2]; 0 h = 100%, experiment 1 of 3): 14.9136%
Percentage intact, CWE 16h ([2]; 0 h = 100%, experiment 2 of 3): 27.664%
Percentage intact, CWE 16h ([2]; 0 h = 100%, experiment 3 of 3): 7.724%
Percentage intact, CWE 24h ([2]; 24 h, 0 h = 100%, experiment 1 of 3): 4.675%
Percentage intact, CWE 24h ([2]; 24 h, 0 h = 100%, experiment 2 of 3): 5.495%
Percentage intact, CWE 24h ([2]; 24 h, 0 h = 100%, experiment 3 of 3): 8.834%
Percentage intact, CWE 48h ([2]; 0 h = 100%, experiment 2 of 3): 0.0001%
Percentage intact, CWE 48h ([2]; 0 h = 100%, experiment 3 of 3): 0.0001%
Percentage intact, CWE 72h ([2]; 0 h = 100%, experiment 2 of 3): 0.0001%
Percentage intact, CWE 72h ([2]; 0 h = 100%, experiment 3 of 3): 0.0001%
Percentage intact, CWE 96h ([2]; 0 h = 100%, experiment 2 of 3): 0.0001%
Percentage intact, CWE 96h ([2]; 0 h = 100%, experiment 3 of 3): 0.0001%
remaining at 8 h, 0.5 mg/ml ([2]; human, chronic wound extracts (CWE), 1 mg/ml in PBS mixed 1:1 with CWE (1 mg/ml protein, pools of 5 donors), 8 h, 0 h = 100%, mean of 3 independent experiments, read-out: Original amount of peptide remaining intact after 8 h in CWE): 53%
remaining at 24 h, 0.5 mg/ml ([2]; human, chronic wound extracts (CWE), 1 mg/ml in PBS mixed 1:1 with CWE (1 mg/ml protein, pools of 5 donors), 24 h, 0 h = 100%, mean of 3 independent experiments, read-out: Original amount of peptide remaining intact after 24 h in CWE): 6%
metabolised at 8 h, 0.5 mg/ml ([2]; human, chronic wound extracts (CWE), incubation with chronic wound extracts, 8 h, read-out: Breakdown (degradation) in CWE in 8 h): ~50%
Sequence: RKFHEKHHSHREFPFYGDYGSNYLYDN [Hst2]
